Measurements as given in patent US12539292B2, “BRM targeting compounds and associated methods of use” (Arvinas Operations, Inc., priority 2018, dated 2026).
Blank lines part the entries; values can stand above or below the compound they belong to.

Molecular target: T1, BRM (Homo sapiens, UniProt P51531)
T1 construct: In-Cell Western Screen of BRM Degradation in SW1573 Cells; endogenous in cells; host or cells: SW1573
Experiment: In-cell Western screen of BRM degradation in SW1573 cells (Dmax and DC50)
Assay type: cell-based
Details: BRM degradation, SW1573 cells; for DC50: read-out: DC50; for Dmax: read-out: Dmax (% degraded)
Outline: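 SW1573 cells were treated overnight (18-20 hours) with compound at 0.1% final DMSO. They were then PFA-fixed, permeabilised with Triton X-100 and immunostained with 800 nm/680 nm secondary antibodies. BRM signal was quantified by LI-COR in-cell Western imaging to derive Dmax and DC50.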

T1 sequence (P51531 whole entry): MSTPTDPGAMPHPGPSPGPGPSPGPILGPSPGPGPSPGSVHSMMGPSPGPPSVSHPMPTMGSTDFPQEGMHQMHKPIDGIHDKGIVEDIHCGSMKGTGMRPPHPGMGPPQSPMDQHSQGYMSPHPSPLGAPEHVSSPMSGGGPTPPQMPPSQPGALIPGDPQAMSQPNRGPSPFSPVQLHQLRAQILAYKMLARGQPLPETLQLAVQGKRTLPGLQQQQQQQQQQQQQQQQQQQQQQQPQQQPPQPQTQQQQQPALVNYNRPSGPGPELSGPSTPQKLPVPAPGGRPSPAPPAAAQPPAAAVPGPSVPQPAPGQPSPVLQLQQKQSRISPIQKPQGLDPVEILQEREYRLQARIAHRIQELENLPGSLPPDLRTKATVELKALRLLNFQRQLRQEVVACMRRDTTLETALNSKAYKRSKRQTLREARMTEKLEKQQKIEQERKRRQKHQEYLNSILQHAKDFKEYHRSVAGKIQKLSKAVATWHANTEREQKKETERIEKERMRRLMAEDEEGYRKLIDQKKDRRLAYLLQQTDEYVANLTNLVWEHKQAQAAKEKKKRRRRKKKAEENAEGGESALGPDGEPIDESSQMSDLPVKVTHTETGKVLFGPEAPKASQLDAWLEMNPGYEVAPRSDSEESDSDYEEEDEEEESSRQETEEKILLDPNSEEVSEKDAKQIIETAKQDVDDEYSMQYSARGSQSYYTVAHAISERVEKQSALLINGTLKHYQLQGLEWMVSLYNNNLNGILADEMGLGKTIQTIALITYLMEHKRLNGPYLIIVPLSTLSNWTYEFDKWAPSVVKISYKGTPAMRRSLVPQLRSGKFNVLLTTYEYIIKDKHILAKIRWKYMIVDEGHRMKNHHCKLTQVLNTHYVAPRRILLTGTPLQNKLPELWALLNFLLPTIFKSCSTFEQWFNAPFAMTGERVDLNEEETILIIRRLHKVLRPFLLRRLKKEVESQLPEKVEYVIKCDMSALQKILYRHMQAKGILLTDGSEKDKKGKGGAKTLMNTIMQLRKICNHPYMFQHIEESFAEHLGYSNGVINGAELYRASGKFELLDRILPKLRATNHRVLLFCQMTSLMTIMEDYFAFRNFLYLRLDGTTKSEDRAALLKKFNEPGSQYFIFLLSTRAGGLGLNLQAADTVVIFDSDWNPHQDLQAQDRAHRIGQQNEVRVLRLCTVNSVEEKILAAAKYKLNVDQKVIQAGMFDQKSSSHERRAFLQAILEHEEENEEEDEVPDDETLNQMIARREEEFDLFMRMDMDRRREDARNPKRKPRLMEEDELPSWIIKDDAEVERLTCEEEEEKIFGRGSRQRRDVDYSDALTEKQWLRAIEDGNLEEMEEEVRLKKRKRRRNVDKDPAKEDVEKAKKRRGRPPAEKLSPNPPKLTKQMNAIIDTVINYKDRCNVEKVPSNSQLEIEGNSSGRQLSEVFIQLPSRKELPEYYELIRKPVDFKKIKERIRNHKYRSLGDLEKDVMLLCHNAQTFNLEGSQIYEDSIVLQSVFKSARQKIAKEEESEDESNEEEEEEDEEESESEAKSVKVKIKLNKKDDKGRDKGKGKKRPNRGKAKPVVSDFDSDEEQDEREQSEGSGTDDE

SMILES: Cc1ncsc1-c1ccc([C@H](C)NC(=O)[C@@H]2C[C@@H](O)CN2C(=O)[C@@H](c2cc(N3CCC(CN4CCC(O[C@H]5C[C@H](Oc6cc(N7C8CCC7CN(c7cc(-c9ccccc9O)nnc7N)C8)ccn6)C5)CC4)CC3)no2)C(C)C)cc1F [compound 652, (2S,4R)-1-((2R)-2-(3-(4-((4-((1r,3r)-3-((4-(3-(3-amino-6-(2-hydroxyphenyl)pyridazin-4-yl)-3,8-diazabicyclo[3.2.1]octan-8-yl)pyridin-2-yl)oxy)cyclobutoxy)piperidin-1-yl)methyl)piperidin-1-yl)isoxazol-5-yl)-3-methylbutanoyl)-N-((S)-1-(3-fluoro-4-(4-methylthiazol-5-yl)phenyl)ethyl)-4-hydroxypyrrolidine-2-carboxamide]
- DC50: < 2.5 nM
- Dmax: > 75%

SMILES: Cc1ncsc1-c1ccc([C@H](CO)NC(=O)[C@@H]2C[C@@H](O)CN2C(=O)[C@@H](c2cc(N3CCC(CN4CCC(O[C@H]5C[C@H](Oc6cc(N7C8CCC7CN(c7cc(-c9ccccc9O)nnc7N)C8)ccn6)C5)CC4)CC3)no2)C(C)C)cc1 [compound 653, (2S,4R)-1-((2R)-2-(3-(4-((4-((1r,3r)-3-((4-(3-(3-amino-6-(2-hydroxyphenyl)pyridazin-4-yl)-3,8-diazabicyclo[3.2.1]octan-8-yl)pyridin-2-yl)oxy)cyclobutoxy)piperidin-1-yl)methyl)piperidin-1-yl)isoxazol-5-yl)-3-methylbutanoyl)-4-hydroxy-N-((R)-2-hydroxy-1-(4-(4-methylthiazol-5-yl)phenyl)ethyl)pyrrolidine-2-carboxamide]
- DC50: < 2.5 nM
- Dmax: > 75%

SMILES: CC[C@H](NC(=O)[C@@H]1C[C@@H](O)CN1C(=O)[C@@H](c1cc(N2CCC(CN3CCC(O[C@H]4C[C@H](Oc5cc(N6C7CCC6CN(c6cc(-c8ccccc8O)nnc6N)C7)ccn5)C4)CC3)CC2)no1)C(C)C)c1ccc(-c2scnc2C)cc1 [compound 654, (2S,4R)-1-((2R)-2-(3-(4-((4-((1r,3r)-3-((4-(3-(3-amino-6-(2-hydroxyphenyl)pyridazin-4-yl)-3,8-diazabicyclo[3.2.1]octan-8-yl)pyridin-2-yl)oxy)cyclobutoxy)piperidin-1-yl)methyl)piperidin-1-yl)isoxazol-5-yl)-3-methylbutanoyl)-4-hydroxy-N-((S)-1-(4-(4-methylthiazol-5-yl)phenyl)propyl)pyrrolidine-2-carboxamide]
- DC50: < 2.5 nM
- Dmax: > 75%

SMILES: Cc1ncsc1-c1ccc([C@H](C)NC(=O)[C@@H]2C[C@@H](O)CN2C(=O)[C@H](c2cc(N3CCCC(CN4CCC(O[C@H]5C[C@H](Oc6cc(N7C8CCC7CN(c7cc(-c9ccccc9O)nnc7N)C8)ccn6)C5)CC4)C3)no2)C(C)C)cc1 (stereo partly drawn) [compound 655, (2S,4R)-1-((2S)-2-(3-(3-((4-((1r,3S)-3-((4-(3-(3-amino-6-(2-hydroxyphenyl)pyridazin-4-yl)-3,8-diazabicyclo[3.2.1]octan-8-yl)pyridin-2-yl)oxy)cyclobutoxy)piperidin-1-yl)methyl)piperidin-1-yl)isoxazol-5-yl)-3-methylbutanoyl)-4-hydroxy-N-((S)-1-(4-(4-methylthiazol-5-yl)phenyl)ethyl)pyrrolidine-2-carboxamide]
- DC50: > 30 nM

- DC50: > 30 nM
SMILES: Cc1ncsc1-c1ccc([C@H](C)NC(=O)[C@@H]2C[C@@H](O)CN2C(=O)[C@H](c2cc(N3CCC4(CCCN(C[C@H]5C[C@H](Oc6cc(N7C8CCC7CN(c7cc(-c9ccccc9O)nnc7N)C8)ccn6)C5)C4)CC3)no2)C(C)C)cc1 [compound 659, (2S,4R)-1-((2S)-2-(3-(2-(((1r,3S)-3-((4-(3-(3-amino-6-(2-hydroxyphenyl)pyridazin-4-yl)-3,8-diazabicyclo[3.2.1]octan-8-yl)pyridin-2-yl)oxy)cyclobutyl)methyl)-2,9-diazaspiro[5.5]undecan-9-yl)isoxazol-5-yl)-3-methylbutanoyl)-4-hydroxy-N-((S)-1-(4-(4-methylthiazol-5-yl)phenyl)ethyl)pyrrolidine-2-carboxamide]

SMILES: Cc1ncsc1-c1ccc([C@H](C)NC(=O)[C@@H]2C[C@@H](O)CN2C(=O)[C@@H](c2cc(N3CCC4(CCCN(C[C@H]5C[C@H](Oc6cc(N7C8CCC7CN(c7cc(-c9ccccc9O)nnc7N)C8)ccn6)C5)C4)CC3)no2)C(C)C)cc1 [compound 660, (2S,4R)-1-((2R)-2-(3-(2-(((1r,3R)-3-((4-(3-(3-amino-6-(2-hydroxyphenyl)pyridazin-4-yl)-3,8-diazabicyclo[3.2.1]octan-8-yl)pyridin-2-yl)oxy)cyclobutyl)methyl)-2,9-diazaspiro[5.5]undecan-9-yl)isoxazol-5-yl)-3-methylbutanoyl)-4-hydroxy-N-((S)-1-(4-(4-methylthiazol-5-yl)phenyl)ethyl)pyrrolidine-2-carboxamide]
- DC50: < 2.5 nM
- Dmax: > 75%

SMILES: Cc1ncsc1-c1ccc([C@H](CCO)NC(=O)[C@@H]2C[C@@H](O)CN2C(=O)[C@@H](c2cc(N3CCC(CN4CCC(O[C@H]5C[C@H](Oc6cc(N7C8CCC7CN(c7cc(-c9ccccc9O)nnc7N)C8)ccn6)C5)CC4)CC3)no2)C(C)C)cc1 [compound 661, (2S,4R)-1-((2R)-2-(3-(4-((4-((1r,3r)-3-((4-(3-(3-amino-6-(2-hydroxyphenyl)pyridazin-4-yl)-3,8-diazabicyclo[3.2.1]octan-8-yl)pyridin-2-yl)oxy)cyclobutoxy)piperidin-1-yl)methyl)piperidin-1-yl)isoxazol-5-yl)-3-methylbutanoyl)-4-hydroxy-N-((S)-3-hydroxy-1-(4-(4-methylthiazol-5-yl)phenyl)propyl)pyrrolidine-2-carboxamide]
- DC50: < 2.5 nM
- Dmax: > 75%

SMILES: Cc1ncsc1-c1ccc([C@@H](CCO)NC(=O)[C@@H]2C[C@@H](O)CN2C(=O)[C@@H](c2cc(N3CCC(CN4CCC(O[C@H]5C[C@H](Oc6cc(N7C8CCC7CN(c7cc(-c9ccccc9O)nnc7N)C8)ccn6)C5)CC4)CC3)no2)C(C)C)cc1 [compound 662, (2S,4R)-1-((2R)-2-(3-(4-((4-((1r,3r)-3-((4-(3-(3-amino-6-(2-hydroxyphenyl)pyridazin-4-yl)-3,8-diazabicyclo[3.2.1]octan-8-yl)pyridin-2-yl)oxy)cyclobutoxy)piperidin-1-yl)methyl)piperidin-1-yl)isoxazol-5-yl)-3-methylbutanoyl)-4-hydroxy-N-((R)-3-hydroxy-1-(4-(4-methylthiazol-5-yl)phenyl)propyl)pyrrolidine-2-carboxamide]
- DC50: 2.5 to 10 nM
- Dmax: > 75%

SMILES: CC[C@@H](NC(=O)[C@@H]1C[C@@H](O)CN1C(=O)[C@@H](c1cc(N2CCC(CN3CCC(O[C@H]4C[C@H](Oc5cc(N6C7CCC6CN(c6cc(-c8ccccc8O)nnc6N)C7)ccn5)C4)CC3)CC2)no1)C(C)C)c1ccc(-c2scnc2C)cc1 [compound 663, (2S,4R)-1-((2R)-2-(3-(4-((4-((1r,3r)-3-((4-(3-(3-amino-6-(2-hydroxyphenyl)pyridazin-4-yl)-3,8-diazabicyclo[3.2.1]octan-8-yl)pyridin-2-yl)oxy)cyclobutoxy)piperidin-1-yl)methyl)piperidin-1-yl)isoxazol-5-yl)-3-methylbutanoyl)-4-hydroxy-N-((R)-1-(4-(4-methylthiazol-5-yl)phenyl)propyl)pyrrolidine-2-carboxamide]
- DC50: 2.5 to 10 nM
- Dmax: 50 to 75%

SMILES: Cc1ncsc1-c1ccc([C@H](C)NC(=O)[C@@H]2C[C@@H](O)CN2C(=O)[C@@H](c2cc(N3CCC(CN4CCC(O[C@H]5C[C@@H](CN6CCC(C(C)n7cc(-c8cc(-c9ccccc9O)nnc8N)cn7)CC6)C5)CC4)CC3)no2)C(C)C)cc1 (stereo partly drawn) [compound 664, (2S,4R)-1-((2R)-2-(3-(4-((4-((1s,3s)-3-((4-(1-(4-(3-amino-6-(2-hydroxyphenyl)pyridazin-4-yl)-1H-pyrazol-1-yl)ethyl)piperidin-1-yl)methyl)cyclobutoxy)piperidin-1-yl)methyl)piperidin-1-yl)isoxazol-5-yl)-3-methylbutanoyl)-4-hydroxy-N-((S)-1-(4-(4-methylthiazol-5-yl)phenyl)ethyl)pyrrolidine-2-carboxamide]
- DC50: < 2.5 nM
- Dmax: > 75%

SMILES: Cc1ncsc1-c1ccc([C@H](C)NC(=O)[C@@H]2C[C@@H](O)CN2C(=O)[C@@H](c2cc(N3CCC(CN4CCC(O[C@H]5C[C@@H](N6CCC(C(C)n7cc(-c8cc(-c9ccccc9O)nnc8N)cn7)CC6)C5)CC4)CC3)no2)C(C)C)cc1 (stereo partly drawn) [compound 665, (2S,4R)-1-((2R)-2-(3-(4-((4-((1s,3s)-3-(4-(1-(4-(3-amino-6-(2-hydroxyphenyl)pyridazin-4-yl)-1H-pyrazol-1-yl)ethyl)piperidin-1-yl)cyclobutoxy)piperidin-1-yl)methyl)piperidin-1-yl)isoxazol-5-yl)-3-methylbutanoyl)-4-hydroxy-N-((S)-1-(4-(4-methylthiazol-5-yl)phenyl)ethyl)pyrrolidine-2-carboxamide]
- DC50: < 2.5 nM
- Dmax: > 75%

SMILES: Cc1ncsc1-c1c(F)cc([C@H](C)NC(=O)[C@@H]2C[C@@H](O)CN2C(=O)[C@@H](c2cc(N3CCC(CN4CCC(O[C@H]5C[C@H](Oc6cc(N7C8CCC7CN(c7cc(-c9ccccc9O)nnc7N)C8)ccn6)C5)CC4)CC3)no2)C(C)C)cc1F [compound 666, (2S,4R)-1-((2R)-2-(3-(4-((4-((1r,3r)-3-((4-(3-(3-amino-6-(2-hydroxyphenyl)pyridazin-4-yl)-3,8-diazabicyclo[3.2.1]octan-8-yl)pyridin-2-yl)oxy)cyclobutoxy)piperidin-1-yl)methyl)piperidin-1-yl)isoxazol-5-y1)-3-methylbutanoyl)-N-((S)-1-(3,5-difluoro-4-(4-methylthiazol-5-yl)phenyl)ethyl)-4-hydroxypyrrolidine-2-carboxamide]
- DC50: < 2.5 nM
- Dmax: > 75%
